Data: ChEMBL document CHEMBL6087420, “Synthesis and pharmacodynamic evaluation of 2-aminoindole derivatives against influenza A virus in vitro/vivo” (Eur J Med Chem, 2025)
Activity calls are given as the source filed them. The calls are words filed in the database; no cut-off is given here.

What was measured:
Influenza A virus [1] = assay: Antiviral activity against influenza A virus infected in A549 cells assessed as decrease in IAV-M2 expression pretreated for 48 hrs followed by infected with virus by Western blotting analysis; assay type: functional, organism-based; conditions: dose 25-100 µM
Influenza A virus [2] = assay: Inhibition of influenza A virus infection induced apoptosis in MDCK cells infected with influenza virus assessed as necrotic cells at 50 uM incubated for 36 hrs by AnnexinV-FITC/PI staining based flow cytometry (reference value: 1.79%); assay type: functional; parameters: scale not given: the % may be the effect or the level left
Influenza A virus [3] = assay: Antiviral activity against influenza A virus H1NI (A/Weiss/43) virus infected in dog MDCK cells assessed as viral inhibition treated after 4 hrs of viral infection measured at 72 hrs incubation by MTT assay; assay type: functional
Influenza A virus [4] = assay: Inhibition of influenza A virus infection induced apoptosis in MDCK cells assessed as necrotic cells at 100 uM incubated for 36 hrs by AnnexinV-FITC/PI staining based flow cytometry (reference value: 0.74%); assay type: functional; parameters: scale not given: the % may be the effect or the level left
Influenza A virus [5] = assay: Inhibition of influenza A virus infection induced apoptosis in MDCK cells infected with influenza virus assessed as late apoptotic cells at 25 uM incubated for 36 hrs by AnnexinV-FITC/PI staining based flow cytometry (reference value: 13.2%); assay type: functional; parameters: scale not given: the % may be the effect or the level left
Influenza A virus [6] = assay: Antiviral activity against influenza A virus infected in human A549 cells assessed as inhibition of RIG-1 protein expression at 25 to 100 uM by Western blot analysis; assay type: functional, organism-based; conditions: dose 25-100 µM
Influenza A virus [7] = assay: In vivo antiviral activity against influenza A virus infected in BALB/c mouse assessed as reduction in TNF-alpha mRNA level in lung at 25 to 100 mg/kg measured after 6 dpi; assay type: functional, organism-based; conditions: dose 25-100 mg/kg
Influenza A virus [8] = assay: In vivo antiviral activity against influenza A virus infected in BALB/c mouse assessed as reduction in lung lesions at 25 to 100 mg/kg; assay type: functional, organism-based; conditions: dose 25-100 mg/kg
Influenza A virus [9] = assay: Inhibition of influenza A virus infection induced apoptosis in MDCK cells infected with influenza virus assessed as necrotic cells at 100 uM incubated for 36 hrs by AnnexinV-FITC/PI staining based flow cytometry (reference value: 1.79%); assay type: functional; parameters: scale not given: the % may be the effect or the level left
Influenza A virus [10] = assay: Antiviral activity against influenza A virus infected in A549 cells assessed as decrease in IAV-M2 mRNA level measured after 1 to 3 days of viral infection; assay type: functional, organism-based; conditions: time 1-3 day
[11] = Selectivity index, ratio of CC50 for dog MDCK cells to EC50 for antiviral activity against Influenza A virus H1NI (A/Virginia/ATCC2/2009) infected in MDCK cells; assay type: toxicity, cell-based; conditions: read-out: Selectivity Index
Influenza A virus [12] = assay: In vivo antiviral activity against influenza A virus infected in BALB/c mouse assessed as reduction in TLR-3 mRNA level in lung at 25 to 100 mg/kg measured after 6 dpi; assay type: functional, organism-based; conditions: dose 25-100 mg/kg
Influenza A virus [13] = assay: Inhibition of influenza A virus infection induced apoptosis in MDCK cells infected with influenza virus assessed as viable cells at 100 uM incubated for 36 hrs by AnnexinV-FITC/PI staining based flow cytometry (reference value: 66.9%); assay type: functional
MDCK = assay: Inhibition of influenza virus infection induced mitochondrial membrane potential loss in MDCK cells infected with influenza virus assessed as decrease in green fluorescence at 25 to 100 uM by JC-1 probe based confocal microscopy; assay type: functional, cell-based; conditions: Influenza A virus, dose 25-100 µM
Influenza A virus [14] = assay: Antiviral activity against influenza A virus infected in A549 cells assessed as decrease in IAV-NP mRNA level measured after 1 to 3 days of viral infection; assay type: functional, organism-based; conditions: time 1-3 day
Influenza A virus [15] = assay: Antiviral activity against influenza A virus H1N1 infected in MDCK cells assessed as decrease in virus infection-induced cytopathic effect; assay type: functional, organism-based
Influenza A virus [16] = assay: Anti-influenza activity against influenza A virus H1NI (A/Weiss/43) infected in dog MDCK cells assessed as virus inhibition rate incubated for 72 hrs by MTT assay; assay type: functional, organism-based
Influenza A virus [17] = assay: Inhibition of influenza A virus infection induced apoptosis in MDCK cells infected with influenza virus assessed as decrease in Bax incubated for 36 hrs by Western blot analysis; assay type: functional, organism-based
Influenza A virus [18] = assay: Anti-influenza activity against influenza A virus H3N2 (A/California/2014) infected in dog MDCK cells incubated for 72 hrs by MTT assay; assay type: functional, organism-based
Influenza A virus [19] = assay: Inhibition of influenza A virus infection induced apoptosis in MDCK cells infected with influenza virus assessed as decrease in cleaved caspase 9 incubated for 36 hrs by Western blot analysis; assay type: functional, organism-based
Influenza A virus [20] = assay: Antiviral activity against influenza A virus infected in human A549 cells assessed as inhibition of NF-kappaB protein expression at 25 to 100 uM by Western blot analysis; assay type: functional, organism-based; conditions: dose 25-100 µM
Influenza A virus [21] = assay: Antiviral activity against influenza A virus infected in human A549 cells assessed as inhibition of RIG-1 expression by qRT-PCR analysis; assay type: functional, organism-based
[22] = Selectivity index, ratio of CC50 for dog MDCK cells to EC50 for antiviral activity against Influenza A virus […] H3N2 (A/California/2014) infected in MDCK cells; assay type: toxicity, cell-based; conditions: read-out: Selectivity Index
[23] = Toxicity in healthy BALB/c mouse assessed as pathological change in lungs at 25 to 100 mg/kg administered through gavage for 6 days; assay type: organism-based; conditions: in vivo, po, 144 h, dose 25-100 mg/kg, time 6 day
Influenza A virus [24] = assay: Antiviral activity against influenza A virus infected in human A549 cells assessed as inhibition of TNFalpha expression by qRT-PCR analysis; assay type: functional, organism-based
Influenza A virus [25] = assay: In vivo antiviral activity against influenza A virus infected in BALB/c mouse assessed as reduction in RIG-I mRNA level in lung at 25 to 100 mg/kg measured after 6 dpi; assay type: functional, organism-based; conditions: dose 25-100 mg/kg
Influenza A virus [26] = assay: Antiviral activity against influenza A virus infected in human A549 cells assessed as inhibition of IFN-beta expression by qRT-PCR analysis; assay type: functional, organism-based
Influenza A virus [27] = assay: Antiviral activity against influenza A virus H1NI (A/Weiss/43) infected in human A549 cells assessed as reduction in IAV-NP mRNA by qRT-PCR assay; assay type: functional, organism-based
Influenza A virus [28] = assay: Inhibition of influenza A virus infection induced apoptosis in MDCK cells infected with influenza virus assessed as necrotic cells at 25 uM incubated for 36 hrs by AnnexinV-FITC/PI staining based flow cytometry (reference value: 1.79%); assay type: functional; parameters: scale not given: the % may be the effect or the level left
[29] = Selectivity index, ratio of CC50 for dog MDCK cells to EC50 for antiviral activity against Influenza A virus H1N1 (A/Weiss/43) infected in MDCK cells; assay type: toxicity, cell-based; conditions: read-out: Ratio CC50/EC50
[30] = Toxicity in healthy BALB/c mouse assessed as pathological change in kidney at 25 to 100 mg/kg administered through gavage for 6 days; assay type: organism-based; conditions: in vivo, po, 144 h, dose 25-100 mg/kg, time 6 day
Influenza A virus [31] = assay: Inhibition of influenza A virus infection induced apoptosis in MDCK cells infected with influenza virus assessed as viable cells at 50 uM incubated for 36 hrs by AnnexinV-FITC/PI staining based flow cytometry (reference value: 66.9%); assay type: functional
Influenza A virus [32] = assay: Inhibition of influenza A virus infection induced apoptosis in MDCK cells assessed as viable cells at 100 uM incubated for 36 hrs by AnnexinV-FITC/PI staining based flow cytometry (reference value: 97.6%); assay type: functional
Influenza A virus [33] = assay: Antiviral activity against influenza A virus infected in human A549 cells assessed as inhibition of IRF7 expression by qRT-PCR analysis; assay type: functional, organism-based

For `COc1ccc2c(c1)c(-c1ccccc1)c(NS(C)(=O)=O)n2S(=O)(=O)c1ccc(C)cc1`, the Activity (Influenza A virus [1]) was “Dose-dependent-effect”, the Activity (Influenza A virus [2]) was 1.25% and the “inhibition (INH)” value (Influenza A virus [3]) was 85.3%. The Activity (Influenza A virus [4]) was 1.78%, the Activity (Influenza A virus [5]) was 9.29% and the Activity (Influenza A virus [6]) was “Active”. The Activity (Influenza A virus [7]) was “Active”, the Activity (Influenza A virus [8]) was “Active; Compound Alleviate Red Liver-Like Degeneration Stage, With Edema And Expansion, And Dark Red Lesions And Lung Consolidation - Only Mild Edema Observed” and the Activity (Influenza A virus [9]) was 1.74%. The Activity (Influenza A virus [10]) was “Active”, the selectivity ratio [11] was 51.9 and the Activity (Influenza A virus [12]) was “Active”. For the same molecule, the Activity (Influenza A virus [13]) was 92.8%, the inhibition (MDCK) was “Active” and the Activity (Influenza A virus [14]) was “Active”. For the same molecule, the Activity (Influenza A virus [15]) was “Active”, the EC50 (Influenza A virus [16]) was 8.37 µM and the Activity (Influenza A virus [17]) was “Active”. The EC50 (Influenza A virus [18]) was 18.3 µM, the Activity (Influenza A virus [19]) was “Dose-dependent-effect” and the Activity (Influenza A virus [20]) was “Active”. The Activity (Influenza A virus [21]) was “Active”, the selectivity ratio [22] was 36.5 and the Activity [23] was “Non-toxic”. For the same molecule, the Activity (Influenza A virus [24]) was “Active”, the Activity (Influenza A virus [25]) was “Active” and the Activity (Influenza A virus [26]) was “Active”. For the same molecule, the Activity (Influenza A virus [27]) was “Active”, the Activity (Influenza A virus [28]) was 1.23% and the selectivity ratio [29] was 80. The Activity [30] was “Non-toxic”, the Activity (Influenza A virus [31]) was 85.5% and the Activity (Influenza A virus [32]) was 96.7%. For the same molecule, the Activity (Influenza A virus [33]) was “Active”.
